Measurements taken from patent publication US9403813B2, “Azetidine amide derivatives as orexin receptor antagonists” (ACTELION PHARMACEUTICALS LTD, priority 2013, dated 2016).

Assays:
[1] = test system: humans; conditions: primary insomnia; cited from earlier work
[2] = test system: rat; conditions: cited from earlier work
[3] = test system: rats; conditions: cited from earlier work
[4] = test system: rat; conditions: cited from earlier work; remark: listed apart in the source
[5] = test system: rats; conditions: rats treated with the compound; cited from earlier work
[6] = test system: amyloid precursor protein transgenic mice; conditions: after acute sleep restriction, APP transgenic mice; cited from earlier work
[7] = test system: mouse; conditions: administered chronically; cited from earlier work
[8] = test system: rats; conditions: fasted hungry rats exposed to food odors; cited from earlier work
[9] = test system: rat; conditions: cited from earlier work; remark: listed apart in the source
[10] = target: human orexin-1 receptor (Homo sapiens (Human), UniProt O43613); test: Intracellular calcium measurements (FLIPR), antagonism of orexin-A response; format: cell-based; conditions: CHO cells expressing human orexin-1 receptor, 3 nM orexin-A, geometric mean if determined several times, read-out: IC50 OX1
Sequence of human orexin-1 receptor (O43613 whole entry): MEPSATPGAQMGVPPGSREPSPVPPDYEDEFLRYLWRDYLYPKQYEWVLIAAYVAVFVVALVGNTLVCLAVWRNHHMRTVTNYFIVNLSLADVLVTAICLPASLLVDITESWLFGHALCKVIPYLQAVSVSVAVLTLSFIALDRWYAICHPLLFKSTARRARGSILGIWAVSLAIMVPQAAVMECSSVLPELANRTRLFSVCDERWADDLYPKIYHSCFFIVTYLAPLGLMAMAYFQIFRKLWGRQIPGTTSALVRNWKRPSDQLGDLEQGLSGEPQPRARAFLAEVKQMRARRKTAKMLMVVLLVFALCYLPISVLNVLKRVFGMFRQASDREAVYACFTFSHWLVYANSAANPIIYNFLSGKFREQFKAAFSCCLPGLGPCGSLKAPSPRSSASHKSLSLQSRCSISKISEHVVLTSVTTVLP
Summary of the method: (§1)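 CHO cells expressing human OX1 or OX2 receptor, loaded with fluo-4 AM plus probenecid, preincubated with antagonist 120 min before 3 nM orexin-A challenge. FLIPR calcium peak heights compared with agonist-plus-vehicle response. IC50 possibly normalized to on-plate reference; geometric mean of repeat determinations.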

[11] = target: human orexin-2 receptor (Homo sapiens (Human), UniProt O43614); test: as above; format: cell-based; conditions: CHO cells expressing human orexin-2 receptor, 3 nM orexin-A, geometric mean if determined several times, read-out: IC50 OX2
Sequence of human orexin-2 receptor (O43614 whole entry): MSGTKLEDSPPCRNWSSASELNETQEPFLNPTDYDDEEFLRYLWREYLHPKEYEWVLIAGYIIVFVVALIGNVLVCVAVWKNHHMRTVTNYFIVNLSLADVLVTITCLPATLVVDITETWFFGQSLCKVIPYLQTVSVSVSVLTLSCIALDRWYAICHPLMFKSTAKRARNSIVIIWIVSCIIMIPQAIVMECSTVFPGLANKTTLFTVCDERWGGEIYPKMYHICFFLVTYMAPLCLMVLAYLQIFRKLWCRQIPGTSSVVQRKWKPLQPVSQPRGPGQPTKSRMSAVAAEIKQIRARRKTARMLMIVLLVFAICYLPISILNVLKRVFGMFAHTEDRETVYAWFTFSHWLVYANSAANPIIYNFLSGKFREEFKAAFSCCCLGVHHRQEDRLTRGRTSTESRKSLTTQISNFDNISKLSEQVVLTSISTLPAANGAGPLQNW
Summary of the method: as §1

[12] = test system: rodents; conditions: cited from earlier work
[13] = test system: rodents; conditions: cited from earlier work; remark: listed apart in the source

IC50 [10] [µM] | IC50 [11] [µM] | Compound | other results
 |  | CNC(=O)[C@@H](c1ccccc1)N1CCc2cc(OC)c(OC)cc2[C@@H]1CCc1ccc(C(F)(F)F)cc1 [(2R)-2-{(1S)-6,7-dimethoxy-1-[2-(4-trifluoromethyl-phenyl)-ethyl]-3,4-dihydro-1H-isoquinolin-2-yl}-N-methyl-2-phenyl-acetamide] | clinical efficacy [1]: showed clinical efficacy; alertness (active wake and locomotion) [2]: decrease alertness; time spent in REM and NREM sleep [2]: dose-dependently increase the time spent in both REM and NREM sleep; cardiovascular responses to conditioned fear and novelty exposure [3]: attenuated cardiovascular responses; activity in fear-potentiated startle paradigm [4]: active; learning and memory [5]: intact declarative and non-declarative learning and memory; brain levels of amyloid-beta and plaque deposition [6]: decreased brain levels of amyloid-beta (Aβ) as well as Aβ plaque deposition; antidepressant-like activity [7]: induce antidepressant-like activity; natural activation induced by orexin A [8]: attenuate the natural activation induced by orexin A; activity in nicotine self-administration [9]: displayed pharmacological activity
0.414 | 0.009 | Cc1cc(C(=O)N2CC[C@H]2c2nnc(-c3ccccc3OC(F)(F)F)[nH]2)c(-n2nccn2)cc1C [Example 128, (4,5-Dimethyl-2-[1,2,3]triazol-2-yl-phenyl)-{(S)-2-[5-(2-trifluoromethoxy-phenyl)-4H-[1,2,4]triazol-3-yl]-azetidin-1-yl}-methanone] | 
0.454 | 0.006 | COc1cc(C(=O)N2CC[C@H]2c2nnc(-c3ccccc3OC(F)(F)F)[nH]2)c(-n2nccn2)cc1C [Example 129, (5-Methoxy-4-methyl-2-[1,2,3]triazol-2-yl-phenyl)-{(S)-2-[5-(2-trifluoromethoxy-phenyl)-4H-[1,2,4]triazol-3-yl]-azetidin-1-yl}-methanone] | 
0.245 | 0.005 | Cc1cc(-n2nccn2)c(C(=O)N2CC[C@H]2c2nnc(-c3ccccc3OC(F)(F)F)[nH]2)cc1Cl [Example 130, (5-Chloro-4-methyl-2-[1,2,3]triazol-2-yl-phenyl)-{(S)-2-[5-(2-trifluoromethoxy-phenyl)-4H-[1,2,4]triazol-3-yl]-azetidin-1-yl}-methanone] | 
0.497 | 0.005 | COc1cc(C(=O)N2CC[C@H]2c2nnc(-c3ccccc3OC(F)(F)F)[nH]2)c(-n2nccn2)cc1Cl [Example 131, (4-Chloro-5-methoxy-2-[1,2,3]triazol-2-yl-phenyl)-{(S)-2-[5-(2-trifluoromethoxy-phenyl)-4H-[1,2,4]triazol-3-yl]-azetidin-1-yl}-methanone] | 
0.315 | 0.016 | O=C(c1ccc(Cl)cc1-n1nccn1)N1CC[C@H]1c1nnc(-c2ccccc2OC(F)(F)F)[nH]1 [Example 132, (4-Chloro-2-[1,2,3]triazol-2-yl-phenyl)-{(S)-2-[5-(2-trifluoromethoxy-phenyl)-4H-[1,2,4]triazol-3-yl]-azetidin-1-yl}-methanone] | 
0.364 | 0.017 | O=C(c1ccc(C(F)(F)F)cc1-n1nccn1)N1CC[C@H]1c1nnc(-c2ccccc2OC(F)(F)F)[nH]1 [Example 133, (2-[1,2,3]Triazol-2-yl-4-trifluoromethyl-phenyl)-{(S)-2-[5-(2-trifluoromethoxy-phenyl)-4H-[1,2,4]triazol-3-yl]-azetidin-1-yl}-methanone] | 
0.563 | 0.039 | Cc1ccc(-c2ccccc2)c(C(=O)N2CC[C@H]2c2nnc(-c3ccccc3OC(F)(F)F)[nH]2)c1 [Example 134, (4-Methyl-biphenyl-2-yl)-{(S)-2-[5-(2-trifluoromethoxy-phenyl)-4H-[1,2,4]triazol-3-yl]-azetidin-1-yl}-methanone] | 
2 | 0.348 | Cc1ccc(-c2ncccn2)c(C(=O)N2CC[C@H]2c2nnc(-c3ccccc3OC(F)(F)F)[nH]2)c1 [Example 135, (5-Methyl-2-pyrimidin-2-yl-phenyl)-{(S)-2-[5-(2-trifluoromethoxy-phenyl)-4H-[1,2,4]triazol-3-yl]-azetidin-1-yl}-methanone] | 
 |  | Cn1c(SCC(=O)N2CCC[C@H]2C(=O)Nc2ccccc2-c2ccccc2)nc2ccccc21 [N-Biphenyl-2-yl-1-{[(1-methyl-1H-benzimidazol-2-yl)sulfanyl]acetyl}-L-prolinamide] | nicotine-reinstatement for a conditioned reinforcer [12]: inhibited nicotine-reinstatement for a conditioned reinforcer; behavioral and molecular changes induced by repeated amphetamine [13]: reduced behavioral (locomotor sensitization) and molecular (transcriptional responses) changes
